# Assay results as given in patent US9545413B2, “Methods of forming ciclopirox or derivatives thereof in a subject by administration of prodrug” (The University of Kansas, priority 2010, dated 2017).
# Several values for one entry are separate records, joined by “and”; a condition that tells them apart may be missing. Identical values can stand only once. Marks after values point to notes of the source that are not given here.
# How the values were obtained:
# [1] = Mouse plasma ciclopirox pharmacokinetics after 10 mg/kg IV bolus; assay type: in vivo; conditions: for Plasma Ciclopirox Concentrations: individual animals A-F, phosphate disodium salt
# Method: The plasma ciclopirox concentrations in (ng/mL) were determined following bolus administration of ciclopirox-POM prodrug at a 10 mg/kg IV bolus in a mouse model. Time points where data collected are shown in Table 1 to be at 5, 15, 30, 60, 90, 120, 180, and 240 minutes along with the data. […] The IV bolus formulation for prodrug was in 25 mM phosphate buffer.
# (§1) Time points where data collected are shown in Table 1 to be at 5, 15, 30, 60, 90, 120, 180, and 240 minutes along with the data.
# Additionally, mouse intravenous dose pharmacokinetics were determined.
# (§2) The IV bolus and oral administrations are described above.
# [2] = Mouse plasma ciclopirox pharmacokinetics after 30 mg/kg oral dose; assay type: in vivo
# Method: The plasma ciclopirox (i.e., CPX) concentrations in (ng/mL) were determined following bolus administration of ciclopirox-POM prodrug at a 30 mg/kg orally in a mouse model. Time points where data collected are shown in Table 3 to be at 5, 15, 30, 60, 90, 120, 180, and 240 minutes along with the data. […] The oral formulation is a composition having Orasweet SF along with the […].
# as §1
# Additionally, mouse oral dose pharmacokinetics were determined.
# as §2
# [3] = tested on: NMIBC and MIBC cell lines; assay: Anticancer activity in bladder cancer cell lines; assay type: cell-based
# Excerpt: (§3) Bladder cancer presents as two diseases, NMIBC and muscle invasive bladder cancer (MIBC). Approximately three-fourths of newly diagnosed bladder cancer patients present with NMIBC. NMIBC, as it invades into bladder muscle, becomes MIBC. MIBC often metastasizes, requiring systemically administered chemotherapy agents. […] The ciclopirox from ciclopirox-POM prodrug delivery inhibits cell proliferation, colony formation, and spheroid formation in well characterized NMIBC and MIBC cell lines. Although that ciclopirox's fungicidal activity is mediated through its ability to chelate iron, and interrupt iron-dependent intracellular processes, ciclopirox in vitro anti-cancer activity in independent of commercially available iron chelators. […] Accordingly, ciclopirox-POM prodrug can be used in treatment of all forms of bladder cancer, and in cancer stem cells of many different cancers where the Notch signaling pathway is active.
# [4] = tested on: Notch-1 signaling pathway; assay: Inhibition of Notch-1 signaling; assay type: cell-based; conditions: bladder cancer
# Excerpt: The prodrug converts to the active ciclopirox compound that effectively suppresses stem cells in bladder cancer and specifically targets the Notch-1 signaling pathway. […] Suppressing Notch is a significant activity for the compound to inhibit bladder and other cancers where Notch signaling is active (e.g. colon cancer, osteosarcoma).
# as §3
# [5] = Detection of prodrug in plasma and urine after administration; assay type: in vivo
# Excerpt: Accordingly, ciclopirox is readily bioavailable when given IV as the prodrug. […] Based on the data, it is reasonable to believe that the ciclopirox-POM prodrug is rapidly converted to ciclopirox.
# Accordingly, ciclopirox is readily bioavailable when given IV as the prodrug. […] Based on the data, it is reasonable to believe that the ciclopirox-POM prodrug is rapidly converted back to ciclopirox.
# [6] = in vivo, iv, 10 mg/kg, Plasma Ciclopirox Concentrations
# [7] = in vivo, iv, 10 mg/kg, Plasma Ciclopirox Concentrations, Mean
# [8] = mouse, in vivo, po, 30 mg/kg, Plasma Ciclopirox Concentrations
# [9] = mouse, in vivo, po, 30 mg/kg, Plasma Ciclopirox Concentrations, Mean
# [10] = ciclopirox, mouse, 30 mg/kg oral
compound,measurement,setting,value
"Cc1cc(C2CCCCC2)n(O)c(=O)c1 [Ciclopirox Olamine, reference compound]",Alpha rate constant,"[1]; in vivo, iv, 10 mg/kg",0.08802 min⁻¹
same,Beta rate constant,"[1]; in vivo, iv, 10 mg/kg",0.01208 min⁻¹
same,Vdbeta,"[1]; in vivo, iv, 10 mg/kg",4.5652 L/kg
same,clearance,"[1]; in vivo, iv, 10 mg/kg",55.2 mL/min/kg
same,AUC,"[1]; in vivo, iv, 10 mg/kg, AUC (CPX AUC)",2340 ng·h/mL
same,half-life,"[1]; in vivo, iv, 10 mg/kg, Alpha Half-life",7.87 min
same,half-life,"[1]; in vivo, iv, 10 mg/kg, Beta Half-life",57.4 min
same,concentration at 5 min,[1]; [6],6090 ng/mL
same,concentration at 60 min,[1]; [6],171 ng/mL
same,concentration at 90 min,[1]; [6],45.2 ng/mL
same,concentration at 120 min,[1]; [6],46.1 ng/mL
same,concentration at 240 min,[1]; [6],12 ng/mL
same,concentration at 5 min,[1]; [7],4880 ng/mL
same,concentration at 15 min,[1]; [7],892 ng/mL
same,concentration at 30 min,[1]; [7],354 ng/mL
same,concentration at 60 min,[1]; [7],133 ng/mL
same,concentration at 90 min,[1]; [7],58.7 ng/mL
same,concentration at 120 min,[1]; [7],43.2 ng/mL
same,concentration at 180 min,[1]; [7],25.2 ng/mL
same,concentration at 240 min,[1]; [7],15.9 ng/mL
same,bioavailability,"[2]; mouse, in vivo, po",21%
same,AUC,"[2]; mouse, in vivo, po, 30 mg/kg",956 ng·h/mL
same,Beta rate constant,"[2]; mouse, in vivo, po, 30 mg/kg",0.00916 min⁻¹
same,CL/F,"[2]; mouse, in vivo, po, 30 mg/kg",405 mL/min/kg
same,Cmax,"[2]; mouse, in vivo, po, 30 mg/kg",548 ng/mL
same,Tmax,"[2]; mouse, in vivo, po, 30 mg/kg",15 min
same,half-life,"[2]; mouse, in vivo, po, 30 mg/kg",75.7 min
same,Plasma Ciclopirox Concentrations,"[2]; mouse, in vivo, po, 30 mg/kg, 0 min",0 ng/mL
same,concentration at 0 min,[2]; [8],0 ng/mL
same,concentration at 15 min,[2]; [8],478 ng/mL
same,concentration at 30 min,[2]; [8],427 ng/mL
same,concentration at 180 min,[2]; [8],78.2 ng/mL
same,concentration at 240 min,[2]; [8],72.3 ng/mL
same,concentration at 0 min,[2]; [9],0 ng/mL
same,concentration at 15 min,[2]; [9],548 ng/mL
same,concentration at 30 min,[2]; [9],449 ng/mL
same,concentration at 60 min,[2]; [9],309 ng/mL
same,concentration at 90 min,[2]; [9],260 ng/mL
same,concentration at 120 min,[2]; [9],151 ng/mL
same,concentration at 180 min,[2]; [9],80.1 ng/mL
same,concentration at 240 min,[2]; [9],74.7 ng/mL
"Cc1cc(C2CCCCC2)n(O)c(=O)c1 [ciclopirox, 6-cyclohexyl-1-hydroxy-4-methylpyridin-2(1H)-one]",Cell proliferation,[3],inhibits
same,Colony formation,[3],inhibits
same,Spheroid formation,[3],inhibits
same,Notch-1 signaling pathway,[4],inhibits
Cc1cc(C2CCCCC2)n(OCOP(=O)([O-])[O-])c(=O)c1.[Na+].[Na+] [Ciclopirox-POM],Plasma Ciclopirox Concentrations,"[1]; 10 mg/kg IV bolus, 5 min, 10 mg/kg",7280 ng/mL and 7320 ng/mL and 6370 ng/mL and 9700 ng/mL and 8500 ng/mL and 8860 ng/mL
same,"Plasma Ciclopirox Concentrations, Mean","[1]; 10 mg/kg IV bolus, 5 min",8005 ng/mL
same,Plasma Ciclopirox Concentrations,"[1]; 10 mg/kg IV bolus, 15 min, 10 mg/kg",3310 ng/mL and 3180 ng/mL and 1520 ng/mL and 1370 ng/mL and 4010 ng/mL and 3190 ng/mL
same,"Plasma Ciclopirox Concentrations, Mean","[1]; 10 mg/kg IV bolus, 15 min",2763.3 ng/mL
same,Plasma Ciclopirox Concentrations,"[1]; 10 mg/kg IV bolus, 30 min, 10 mg/kg",994 ng/mL and 1200 ng/mL and 986 ng/mL and 1030 ng/mL and 1080 ng/mL and 452 ng/mL
same,"Plasma Ciclopirox Concentrations, Mean","[1]; 10 mg/kg IV bolus, 30 min",957 ng/mL
same,Plasma Ciclopirox Concentrations,"[1]; 10 mg/kg IV bolus, 60 min, 10 mg/kg",410 ng/mL and 259 ng/mL (2×) and 284 ng/mL and 409 ng/mL and 436 ng/mL
same,"Plasma Ciclopirox Concentrations, Mean","[1]; 10 mg/kg IV bolus, 60 min",342.8 ng/mL
same,Plasma Ciclopirox Concentrations,"[1]; 10 mg/kg IV bolus, 90 min, 10 mg/kg",97.6 ng/mL and 157 ng/mL and 74.2 ng/mL and 79.1 ng/mL and 162 ng/mL and 168 ng/mL
same,"Plasma Ciclopirox Concentrations, Mean","[1]; 10 mg/kg IV bolus, 90 min",123 ng/mL
same,Plasma Ciclopirox Concentrations,"[1]; 10 mg/kg IV bolus, 120 min, 10 mg/kg",58 ng/mL and 73.7 ng/mL and 57.9 ng/mL and 19.3 ng/mL and 71.7 ng/mL and 84.8 ng/mL
same,"Plasma Ciclopirox Concentrations, Mean","[1]; 10 mg/kg IV bolus, 120 min",60.9 ng/mL
same,Plasma Ciclopirox Concentrations,"[1]; 10 mg/kg IV bolus, 180 min, 10 mg/kg",18.1 ng/mL and 23 ng/mL and 19.5 ng/mL and 34.8 ng/mL and 19.7 ng/mL and 37.7 ng/mL
same,"Plasma Ciclopirox Concentrations, Mean","[1]; 10 mg/kg IV bolus, 180 min",25.5 ng/mL
same,Plasma Ciclopirox Concentrations,"[1]; 10 mg/kg IV bolus, 240 min, 10 mg/kg",13 ng/mL and 10 ng/mL (2×) and 15 ng/mL and 12 ng/mL and 8 ng/mL
same,"Plasma Ciclopirox Concentrations, Mean","[1]; 10 mg/kg IV bolus, 240 min",11.1 ng/mL
same,CPX Bioavailability Following Prodrug Administration,"[1]; IV administration, prodrug compared to olamine salt",1.143
same,Alpha Half-life,"[1]; ciclopirox, 10 mg/kg IV bolus",9.84 min
same,Alpha rate constant,"[1]; ciclopirox, 10 mg/kg IV bolus",0.07043 min⁻¹
same,Beta Half-life,"[1]; ciclopirox, 10 mg/kg IV bolus",35.92 min
same,Beta rate constant,"[1]; ciclopirox, 10 mg/kg IV bolus",0.01929 min⁻¹
same,CL,"[1]; ciclopirox, 10 mg/kg IV bolus",48.275* mL/min/kg
same,Vdbeta,"[1]; ciclopirox, 10 mg/kg IV bolus",2.502 L/kg
same,Beta Half-life,[2]; [10],52.76 min
same,Beta rate constant,[2]; [10],0.01316 min⁻¹
same,CL/F,[2]; [10],722.06 mL/min/kg
same,Cmax,[2]; [10],520.3 ng/mL
same,Tmax,[2]; [10],15 min
same,Bioavailability following oral administration,"[2]; mice, oral administration",12%
same,Plasma Ciclopirox Concentrations,"[2]; mouse, 30 mg/kg oral dose, 0 min, individual animals A-F",0 ng/mL
same,"Plasma Ciclopirox Concentrations, Mean","[2]; mouse, 30 mg/kg oral dose, 0 min",0 ng/mL
same,Plasma Ciclopirox Concentrations,"[2]; mouse, 30 mg/kg oral dose, 15 min, individual animals A-F, phosphate disodium salt, 30 mg/kg",388 ng/mL and 646 ng/mL and 857 ng/mL and 245 ng/mL and 479 ng/mL and 507 ng/mL
same,"Plasma Ciclopirox Concentrations, Mean","[2]; mouse, 30 mg/kg oral dose, 15 min",520.3 ng/mL
same,Plasma Ciclopirox Concentrations,"[2]; mouse, 30 mg/kg oral dose, 30 min, individual animals A-F, phosphate disodium salt, 30 mg/kg",302 ng/mL and 252 ng/mL and 264 ng/mL and 317 ng/mL and 207 ng/mL and 342 ng/mL
same,"Plasma Ciclopirox Concentrations, Mean","[2]; mouse, 30 mg/kg oral dose, 30 min",280.7 ng/mL
same,Plasma Ciclopirox Concentrations,"[2]; mouse, 30 mg/kg oral dose, 60 min, individual animals A-F, phosphate disodium salt, 30 mg/kg",129 ng/mL and 404 ng/mL and 154 ng/mL and 229 ng/mL and 171 ng/mL and 207 ng/mL
same,"Plasma Ciclopirox Concentrations, Mean","[2]; mouse, 30 mg/kg oral dose, 60 min",215.7 ng/mL
same,Plasma Ciclopirox Concentrations,"[2]; mouse, 30 mg/kg oral dose, 90 min, individual animals A-F, phosphate disodium salt, 30 mg/kg",91 ng/mL and 66.8 ng/mL and 146 ng/mL and 137 ng/mL and 120 ng/mL and 80.3 ng/mL
same,"Plasma Ciclopirox Concentrations, Mean","[2]; mouse, 30 mg/kg oral dose, 90 min",106.9 ng/mL
same,Plasma Ciclopirox Concentrations,"[2]; mouse, 30 mg/kg oral dose, 120 min, individual animals A-F, phosphate disodium salt, 30 mg/kg",72.5 ng/mL and 60.6 ng/mL and 64.6 ng/mL and 81.4 ng/mL and 83.6 ng/mL
same,"Plasma Ciclopirox Concentrations, Mean","[2]; mouse, 30 mg/kg oral dose, 120 min",72.5 ng/mL
same,Plasma Ciclopirox Concentrations,"[2]; mouse, 30 mg/kg oral dose, 180 min, individual animals A-F, phosphate disodium salt, 30 mg/kg",36.8 ng/mL and 45.1 ng/mL and 59.1 ng/mL and 66.4 ng/mL and 44.9 ng/mL and 44 ng/mL
same,"Plasma Ciclopirox Concentrations, Mean","[2]; mouse, 30 mg/kg oral dose, 180 min",49.4 ng/mL
same,Plasma Ciclopirox Concentrations,"[2]; mouse, 30 mg/kg oral dose, 240 min, individual animals A-F, phosphate disodium salt, 30 mg/kg",9.51 ng/mL and 19 ng/mL (2×) and 14.7 ng/mL and 38.1 ng/mL
same,"Plasma Ciclopirox Concentrations, Mean","[2]; mouse, 30 mg/kg oral dose, 240 min",20.1 ng/mL
same,Foral,"[2]; mouse, oral 30 mg/kg v. IV bolus 10 mg/kg of the same substance",0.06686
same,CPX Bioavailability Following Prodrug Administration,"[2]; mouse, oral administration, prodrug compared to olamine salt",0.5603
same,Detection of the prodrug in plasma,[5]; following IV and oral administration,inability to detect
same,Detection of the prodrug in plasma and urine,"[5]; following IV, oral, subcutaneous and intraperitoneal administration",inability to detect
